# “And” between values parts separate entries of the source, which are not always exact repeats. Identical values can stand only once.
# Test system: K98450-129-R-PDC multicell spheroids, viability
# Assay: Anticancer human tumor K98450-129-R-PDC patient-derived colon adenocarcinoma cell line growth inhibition [PI3K]
# Conditions: for viability, T/C: stronger effect = lower value
# From the text: Combinatorial screen of targeted agents with the PI3K inhibitors inavolisib, alpelisib, duvelisib, and copanlisib in multi-cell type tumor spheroids
# A high-throughput screen of multi-cell type tumor spheroids was designed to identify active combinations of targeted small molecules and PI3K pathway inhibitors. Complex spheroids include a stromal component modeled by human endothelial cells (HUVEC) and fibroblasts modeled by human mesenchymal stem cells (MSCs). The concentration ranges selected for each drug and investigational agent were based upon clinically achievable concentrations if the clinical Cmax of the agent was known.
# Compounds. The drugs and investigational agents: inavolisib (NSC800729), alpelisib (NSC765974), duvelisib (NSC772469), copanlisib (NSC816437), ipatasertib (NSC767898), afuresertib (NSC778305), talazoparib (NSC767125), sapanisertib (NSC764658), selumetinib (NSC741078), tovorafenib (DAY101, NSC766906), vemurafenib (NSC761431), ravoxertinib (NSC781343), sotorasib (NSC818433), MRTX1133 (NSC 836407), abemaciclib (NSC 768073), palbociclib (NSC758247), venetoclax (NSC 766270), SY5609 (NSC837396), enzalutamide (NSC755605), and darolutamide (NSC825331), were obtained from the National Cancer Institute (NCI) Developmental Therapeutics Program Chemical Repository. The FDA-approved anticancer drug set is available from the NCI Developmental Therapeutics Program. […] The stock solutions were prepared in dimethyl sulfoxide (DMSO, Sigma-Aldrich, St. Louis, MO, cat. D2650) at 800-fold the tested concentration and stored at -70 degrees C prior to their use. All drugs and investigational agents were tested over a range starting from a high concentration at or near the clinical Cmax and decreasing in half-log increments. If the clinical Cmax for an agent had not been determined, the highest concentration tested was 10 microM.
# Cell Culture. All cells were maintained in an incubator at 37 degrees C and 5% CO2 with 95% humidity. The PDC lines were cultured according to standard operating procedures established by the NCI PDMR (https://pdmr.cancer.gov/sops/default.htm). All PDCs were thawed and cultured in Matrigel-coated flasks prepared with a working solution of 1X Ham's F-12 nutrient mix, without supplementation (Invitrogen, Waltham, MA, cat. 11765054), 100 U/mL penicillin-streptomycin (Invitrogen, cat. 15140122), and 2.5% Matrigel (Corning Inc., Corning, NY, cat. 354248) for the first three passages. The 354836-022-R-J1-PDC, 475296-252-R-J1-PDC, and 997726-040-R-J2-PDC lines were cultured in 6A media, which includes advanced DMEM/F-12 (Thermo Fisher Scientific, cat. 12634028), 10 mM HEPES (Thermo Fisher Scientific, cat. 15630080), 1X GlutaMAX supplement (Thermo Fisher Scientific, cat. 35050061), 0.1 mg/mL primocin (InvivoGen, San Diego, CA, cat. ant-pm-2), 10% defined fetal bovine serum, heat inactivated (HyClone Laboratories Inc., Logan, UT, cat. SH30070.03HI), 50% L-WRN conditioned media (ATCC, cat. CRL-3276), 1.25 mM N-Acetyl-L-cysteine (Sigma-Aldrich, cat. A9165), 10 mM nicotinamide (Sigma-Aldrich, cat. N0636), 1X B-27 supplement (Thermo Fisher Scientific, cat. 17504044), 1X N-2 supplement (Thermo Fisher Scientific, cat. 17502048), and 10 microM Y-27632 dihydrochloride (Tocris Bioscience, Bristol, United Kingdom, cat. 1254). The 624824-186-R-J2-PDC line was cultured in 6C/Colon 1B media, which includes all 6A media components plus 50 ng/mL human EGF recombinant protein (Thermo Fisher Scientific, cat. PHG0311). […]
# [1] = curve of first compound, second compound 0.00316 µM
# [2] = curve of first compound, second compound 0.01 µM
# [3] = curve of first compound, second compound 0.0316 µM
# [4] = curve of first compound, second compound 0.1 µM
# [5] = curve of first compound, second compound 0.316 µM
# [6] = curve of first compound, second compound 1 µM
# [7] = second compound 0.00316 µM, first compound 0.000316 µM
# [8] = second compound 0.00316 µM, first compound 0.001 µM
# [9] = second compound 0.00316 µM, first compound 0.00316 µM
# [10] = second compound 0.00316 µM, first compound 0.01 µM
# [11] = second compound 0.00316 µM, first compound 0.0316 µM
# [12] = second compound 0.00316 µM, first compound 0.1 µM
# [13] = second compound 0.01 µM, first compound 0.000316 µM
# [14] = second compound 0.01 µM, first compound 0.001 µM
# [15] = second compound 0.01 µM, first compound 0.00316 µM
# [16] = second compound 0.01 µM, first compound 0.01 µM
# [17] = second compound 0.01 µM, first compound 0.0316 µM
# [18] = second compound 0.01 µM, first compound 0.1 µM
# [19] = second compound 0.0316 µM, first compound 0.000316 µM
# [20] = second compound 0.0316 µM, first compound 0.001 µM
# [21] = second compound 0.0316 µM, first compound 0.00316 µM
# [22] = second compound 0.0316 µM, first compound 0.01 µM
# [23] = second compound 0.0316 µM, first compound 0.0316 µM
# [24] = second compound 0.0316 µM, first compound 0.1 µM
# [25] = second compound 0.1 µM, first compound 0.000316 µM
# [26] = second compound 0.1 µM, first compound 0.001 µM
# [27] = second compound 0.1 µM, first compound 0.00316 µM
# [28] = second compound 0.1 µM, first compound 0.01 µM
# [29] = second compound 0.1 µM, first compound 0.0316 µM
# [30] = second compound 0.1 µM, first compound 0.1 µM
# [31] = second compound 0.316 µM, first compound 0.000316 µM
# [32] = second compound 0.316 µM, first compound 0.001 µM
# [33] = second compound 0.316 µM, first compound 0.00316 µM
# [34] = second compound 0.316 µM, first compound 0.01 µM
# [35] = second compound 0.316 µM, first compound 0.0316 µM
# [36] = second compound 0.316 µM, first compound 0.1 µM
# [37] = second compound 1 µM, first compound 0.000316 µM
# [38] = second compound 1 µM, first compound 0.001 µM
# [39] = second compound 1 µM, first compound 0.00316 µM
# [40] = second compound 1 µM, first compound 0.01 µM
# [41] = second compound 1 µM, first compound 0.0316 µM
# [42] = second compound 1 µM, first compound 0.1 µM
# 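Note: spheroids exposed to agents for seven days before read-out.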
structure (smiles),measurement,setting,value
Cn1ncnc1[C@H]1c2n[nH]c(=O)c3cc(F)cc(c23)N[C@@H]1c1ccc(F)cc1 + CC(Nc1ccc2c(c1)OCCn1cc(N3C(=O)OCC3C(F)F)nc1-2)C(N)=O,IC50,[1],> 100 nM
same,IC50,[2],> 100 nM
same,IC50,[3],> 100 nM
same,IC50,[4],> 100 nM
same,IC50,[5],> 100 nM
same,IC50,[6],> 100 nM
same,"viability, T/C",[7],112%
same,"viability, T/C",[8],92.8%
same,"viability, T/C",[9],100%
same,"viability, T/C",[10],96.5%
same,"viability, T/C",[11],102%
same,"viability, T/C",[12],95.4%
same,"viability, T/C",[13],114%
same,"viability, T/C",[14],92.8%
same,"viability, T/C",[15],99.2%
same,"viability, T/C",[16],93.8%
same,"viability, T/C",[17],95.9%
same,"viability, T/C",[18],94.3%
same,"viability, T/C",[19],104%
same,"viability, T/C",[20],99%
same,"viability, T/C",[21],89.3%
same,"viability, T/C",[22],100%
same,"viability, T/C",[23],98.5%
same,"viability, T/C",[24],96.9%
same,"viability, T/C",[25],92%
same,"viability, T/C",[26],100%
same,"viability, T/C",[27],99%
same,"viability, T/C",[28],95.1%
same,"viability, T/C",[29],104%
same,"viability, T/C",[30],89.8%
same,"viability, T/C",[31],90.6%
same,"viability, T/C",[32],89.5%
same,"viability, T/C",[33],96%
same,"viability, T/C",[34],91.6%
same,"viability, T/C",[35],100%
same,"viability, T/C",[36],92.6%
same,"viability, T/C",[37],88.4%
same,"viability, T/C",[38],92.2%
same,"viability, T/C",[39],88.8%
same,"viability, T/C",[40],88.6%
same,"viability, T/C",[41],93.6%
same,"viability, T/C",[42],86.9%
Cn1ncnc1[C@H]1c2n[nH]c(=O)c3cc(F)cc(c23)N[C@@H]1c1ccc(F)cc1 + COc1c(OCCCN2CCOCC2)ccc2c3n(c(=NC(=O)c4cnc(N)nc4)nc12)CCN3,IC50,[1],> 100 nM
same,IC50,[2],> 100 nM
same,IC50,[3],> 100 nM
same,IC50,[4],> 100 nM
same,IC50,[5],> 100 nM
same,IC50,[6],> 100 nM
same,"viability, T/C",[7],98.6%
same,"viability, T/C",[8],95.2%
same,"viability, T/C",[9],96.7%
same,"viability, T/C",[10],98%
same,"viability, T/C",[11],100%
same,"viability, T/C",[12],92.9%
same,"viability, T/C",[13],91.8%
same,"viability, T/C",[14],89.6%
same,"viability, T/C",[15],95.1%
same,"viability, T/C",[16],96.9%
same,"viability, T/C",[17],94.6%
same,"viability, T/C",[18],91.9%
same,"viability, T/C",[19],90.1%
same,"viability, T/C",[20],88.7%
same,"viability, T/C",[21],94.5%
same,"viability, T/C",[22],90.6%
same,"viability, T/C",[23],89.5%
same,"viability, T/C",[24],70.1%
same,"viability, T/C",[25],92.3%
same,"viability, T/C",[26],85.5%
same,"viability, T/C",[27],88.6%
same,"viability, T/C",[28],89.8%
same,"viability, T/C",[29],89.5%
same,"viability, T/C",[30],78.6%
same,"viability, T/C",[31],56.6%
same,"viability, T/C",[32],63.6%
same,"viability, T/C",[33],64.5%
same,"viability, T/C",[34],48.5%
same,"viability, T/C",[35],59.1%
same,"viability, T/C",[36],65.4%
same,"viability, T/C",[37],49.9%
same,"viability, T/C",[38],58%
same,"viability, T/C",[39],52.8%
same,"viability, T/C",[40],62%
same,"viability, T/C",[41],56.5%
same,"viability, T/C",[42],54.1%
CNC(=O)c1ccc(N2C(=S)N(c3ccc(C#N)c(C(F)(F)F)c3)C(=O)C2(C)C)cc1F,"viability, T/C",compound 0.0316 µM,105% (2×) and 88.4% and 94.7%
same,"viability, T/C",compound 0.1 µM,104% (2×) and 91.1% and 96.9%
same,"viability, T/C",compound 0.316 µM,102% (2×) and 88.4% and 109%
same,"viability, T/C",compound 1 µM,102% [middle of 4 runs]
same,"viability, T/C",compound 3.16 µM,107% [middle of 4 runs]
same,"viability, T/C",compound 10 µM,113% and 111% (2×) and 90%
same,IC50,curve of compound,> 10000 nM
